Test results published in patent EP4745137A1 (Gluetacs Therapeutics (Shanghai) Co., Ltd., priority 2023, dated 2025).
Each block holds one compound with its values, some of them ahead of it.

Experiments:
IKZF3 = molecular target: T1, IKZF3 (Homo sapiens, UniProt Q96SW2+Q9UKT9); test: Western-blot assay of substrate protein degradation in hPBMCs, IKZF3; assay type: cell-based; conditions: 24 hours of compound treatment
T1 construct: endogenous in cells; host or cells: hPBMCs (Milecell Biotechnologies)

CK1α = molecular target: T2, CK1α (Homo sapiens, UniProt P48729+Q96SW2); test: Western-blot assay of substrate protein degradation in hPBMCs, CK1α; assay type: cell-based; conditions: 24 hours of compound treatment
T2 construct: endogenous in cells; host or cells: hPBMCs (Milecell Biotechnologies)

IKZF1 = molecular target: T3, IKZF1 (Homo sapiens, UniProt Q13422+Q96SW2); test: Western-blot assay of substrate protein degradation in hPBMCs, IKZF1; assay type: cell-based; conditions: 24 hours of compound treatment
T3 construct: endogenous in cells; host or cells: hPBMCs (Milecell Biotechnologies)

[1] = molecular target: T4, human Cereblon WT GST-tagged protein (Homo sapiens, UniProt Q96SW2); test: CRBN-binding affinity by HTRF (CEREBLON BINDING kit); conditions: HTRF inhibitory activity, CEREBLON BINDING kit; read-out: HTRF IC50
T4 construct: purchased CISBIO 64BDCRBNPEH

WEE1 = molecular target: T5, WEE1 (Homo sapiens, UniProt P30291+Q96SW2); test: Western-blot assay of substrate protein degradation in hPBMCs, WEE1; assay type: cell-based; conditions: 24 hours of compound treatment
T5 construct: endogenous in cells; host or cells: hPBMCs (Milecell Biotechnologies)

IKZF2 = molecular target: T6, IKZF2 (Homo sapiens, UniProt Q96SW2+Q9UKS7); test: Western-blot assay of substrate protein degradation in hPBMCs, IKZF2; assay type: cell-based; conditions: 24 hours of compound treatment
T6 construct: endogenous in cells; host or cells: hPBMCs (Milecell Biotechnologies)

GSPT1 = molecular target: T7, GSPT1 (Homo sapiens, UniProt P15170+Q96SW2); test: Western-blot assay of substrate protein degradation in hPBMCs, GSPT1; assay type: cell-based; conditions: 24 hours of compound treatment
T7 construct: endogenous in cells; host or cells: hPBMCs (Milecell Biotechnologies)

[2] = compounds tested at 50 nM and 500 nM (concentration of the table not stated)
[3] = 50 nM and 500 nM tested (concentration behind the class not stated)

T5 sequence (P30291 whole entry): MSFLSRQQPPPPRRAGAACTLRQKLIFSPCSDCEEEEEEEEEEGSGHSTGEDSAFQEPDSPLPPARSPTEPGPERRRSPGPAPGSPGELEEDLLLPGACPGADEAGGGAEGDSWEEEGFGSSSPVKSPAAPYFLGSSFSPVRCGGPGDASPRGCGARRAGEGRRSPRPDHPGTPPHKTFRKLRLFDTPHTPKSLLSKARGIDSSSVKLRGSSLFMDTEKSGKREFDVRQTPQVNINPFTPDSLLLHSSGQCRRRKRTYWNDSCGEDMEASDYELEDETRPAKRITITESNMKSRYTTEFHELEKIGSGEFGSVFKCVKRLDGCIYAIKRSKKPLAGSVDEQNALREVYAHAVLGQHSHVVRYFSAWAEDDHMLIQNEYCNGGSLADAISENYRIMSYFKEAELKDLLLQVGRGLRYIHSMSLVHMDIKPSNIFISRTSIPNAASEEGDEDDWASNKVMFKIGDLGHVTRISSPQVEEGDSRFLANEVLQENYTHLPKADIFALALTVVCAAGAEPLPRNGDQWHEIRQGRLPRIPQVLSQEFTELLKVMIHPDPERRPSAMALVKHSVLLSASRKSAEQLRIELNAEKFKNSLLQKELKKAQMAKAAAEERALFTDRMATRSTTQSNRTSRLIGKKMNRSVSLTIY
T5 sequence (Q96SW2 whole entry): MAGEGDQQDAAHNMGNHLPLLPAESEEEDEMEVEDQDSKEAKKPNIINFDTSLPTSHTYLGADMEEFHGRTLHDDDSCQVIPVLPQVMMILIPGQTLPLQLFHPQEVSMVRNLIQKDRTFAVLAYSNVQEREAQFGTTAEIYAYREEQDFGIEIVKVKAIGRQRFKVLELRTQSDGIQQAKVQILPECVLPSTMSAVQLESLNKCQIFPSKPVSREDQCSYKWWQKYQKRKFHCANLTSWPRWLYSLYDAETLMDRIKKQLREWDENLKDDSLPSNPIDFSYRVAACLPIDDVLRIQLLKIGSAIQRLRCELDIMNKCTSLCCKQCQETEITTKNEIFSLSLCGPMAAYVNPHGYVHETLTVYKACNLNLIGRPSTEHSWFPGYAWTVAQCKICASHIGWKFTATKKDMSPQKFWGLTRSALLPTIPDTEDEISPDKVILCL
T5 sequence (Q16531 whole entry partner): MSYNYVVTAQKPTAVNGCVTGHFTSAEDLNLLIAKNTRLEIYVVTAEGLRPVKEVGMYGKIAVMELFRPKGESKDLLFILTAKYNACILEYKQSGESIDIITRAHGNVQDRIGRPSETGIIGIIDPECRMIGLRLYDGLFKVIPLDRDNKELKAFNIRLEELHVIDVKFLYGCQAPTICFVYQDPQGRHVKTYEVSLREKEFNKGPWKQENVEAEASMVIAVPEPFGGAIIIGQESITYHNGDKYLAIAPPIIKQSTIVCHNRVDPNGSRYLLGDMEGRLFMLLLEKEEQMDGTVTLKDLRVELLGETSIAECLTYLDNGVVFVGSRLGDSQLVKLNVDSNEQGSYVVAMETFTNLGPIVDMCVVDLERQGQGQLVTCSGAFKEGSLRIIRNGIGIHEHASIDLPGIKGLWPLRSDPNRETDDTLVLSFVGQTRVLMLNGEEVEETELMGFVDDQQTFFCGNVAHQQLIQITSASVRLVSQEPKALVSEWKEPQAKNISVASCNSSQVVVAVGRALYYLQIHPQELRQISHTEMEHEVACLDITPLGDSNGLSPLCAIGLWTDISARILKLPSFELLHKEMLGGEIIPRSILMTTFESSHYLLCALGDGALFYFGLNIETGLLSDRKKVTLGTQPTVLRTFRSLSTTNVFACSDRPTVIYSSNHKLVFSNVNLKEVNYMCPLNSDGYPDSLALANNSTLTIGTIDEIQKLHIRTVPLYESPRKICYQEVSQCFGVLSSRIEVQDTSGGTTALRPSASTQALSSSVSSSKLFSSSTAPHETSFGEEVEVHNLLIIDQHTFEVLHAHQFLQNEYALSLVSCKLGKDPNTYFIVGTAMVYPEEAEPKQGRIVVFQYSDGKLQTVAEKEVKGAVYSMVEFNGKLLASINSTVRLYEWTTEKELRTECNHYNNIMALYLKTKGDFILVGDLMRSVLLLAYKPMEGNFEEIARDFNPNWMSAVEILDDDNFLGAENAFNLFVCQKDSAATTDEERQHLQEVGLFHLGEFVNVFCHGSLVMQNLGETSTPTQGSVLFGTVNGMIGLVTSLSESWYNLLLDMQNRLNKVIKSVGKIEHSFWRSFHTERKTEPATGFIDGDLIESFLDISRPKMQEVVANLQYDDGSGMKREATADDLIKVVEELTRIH
T7 sequence (P15170 whole entry): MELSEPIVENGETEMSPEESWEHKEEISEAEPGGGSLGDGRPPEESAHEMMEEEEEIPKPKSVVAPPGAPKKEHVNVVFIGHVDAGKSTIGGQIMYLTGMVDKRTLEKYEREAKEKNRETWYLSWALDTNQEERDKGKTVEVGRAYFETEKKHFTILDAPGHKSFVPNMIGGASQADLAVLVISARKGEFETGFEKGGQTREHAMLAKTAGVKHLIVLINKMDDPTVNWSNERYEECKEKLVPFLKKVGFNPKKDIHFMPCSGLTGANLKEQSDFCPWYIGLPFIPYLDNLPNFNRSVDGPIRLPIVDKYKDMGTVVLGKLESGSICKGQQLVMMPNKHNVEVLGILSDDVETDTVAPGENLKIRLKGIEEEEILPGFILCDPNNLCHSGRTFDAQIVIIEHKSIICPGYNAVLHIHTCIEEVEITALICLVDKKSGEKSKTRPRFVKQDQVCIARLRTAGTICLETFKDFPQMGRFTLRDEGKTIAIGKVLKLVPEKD
T7 sequence (Q96SW2 whole entry): as the sequence (Q96SW2 whole entry) above
T7 sequence (Q16531 whole entry partner): as the sequence (Q16531 whole entry partner) above
T2 sequence (P48729 whole entry): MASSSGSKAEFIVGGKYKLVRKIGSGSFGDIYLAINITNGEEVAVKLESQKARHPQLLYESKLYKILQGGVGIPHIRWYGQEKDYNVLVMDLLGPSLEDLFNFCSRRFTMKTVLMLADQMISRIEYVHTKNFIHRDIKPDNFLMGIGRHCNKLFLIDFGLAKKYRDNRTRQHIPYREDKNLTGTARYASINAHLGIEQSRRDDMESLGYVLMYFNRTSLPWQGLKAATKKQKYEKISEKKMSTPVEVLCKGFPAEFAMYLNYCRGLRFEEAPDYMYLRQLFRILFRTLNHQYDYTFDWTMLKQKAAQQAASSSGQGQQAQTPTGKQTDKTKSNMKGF
T2 sequence (Q96SW2 whole entry): as the sequence (Q96SW2 whole entry) above
T2 sequence (Q16531 whole entry partner): as the sequence (Q16531 whole entry partner) above
T3 sequence (Q13422 whole entry): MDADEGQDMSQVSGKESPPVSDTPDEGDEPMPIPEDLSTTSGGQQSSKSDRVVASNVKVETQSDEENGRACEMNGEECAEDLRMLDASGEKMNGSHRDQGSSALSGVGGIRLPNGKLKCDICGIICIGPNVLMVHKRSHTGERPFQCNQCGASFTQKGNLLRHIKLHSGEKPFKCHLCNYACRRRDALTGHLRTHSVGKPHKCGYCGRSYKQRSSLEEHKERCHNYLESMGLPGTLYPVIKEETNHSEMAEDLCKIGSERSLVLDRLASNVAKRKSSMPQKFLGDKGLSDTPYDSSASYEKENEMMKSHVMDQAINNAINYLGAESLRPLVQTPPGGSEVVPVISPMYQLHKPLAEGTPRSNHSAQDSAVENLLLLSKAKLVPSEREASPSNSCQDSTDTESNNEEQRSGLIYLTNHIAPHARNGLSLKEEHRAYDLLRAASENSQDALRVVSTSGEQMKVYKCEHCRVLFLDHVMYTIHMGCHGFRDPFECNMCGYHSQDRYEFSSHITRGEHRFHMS
T3 sequence (Q96SW2 whole entry): as the sequence (Q96SW2 whole entry) above
T3 sequence (Q16531 whole entry partner): as the sequence (Q16531 whole entry partner) above
T1 sequence (Q9UKT9 whole entry): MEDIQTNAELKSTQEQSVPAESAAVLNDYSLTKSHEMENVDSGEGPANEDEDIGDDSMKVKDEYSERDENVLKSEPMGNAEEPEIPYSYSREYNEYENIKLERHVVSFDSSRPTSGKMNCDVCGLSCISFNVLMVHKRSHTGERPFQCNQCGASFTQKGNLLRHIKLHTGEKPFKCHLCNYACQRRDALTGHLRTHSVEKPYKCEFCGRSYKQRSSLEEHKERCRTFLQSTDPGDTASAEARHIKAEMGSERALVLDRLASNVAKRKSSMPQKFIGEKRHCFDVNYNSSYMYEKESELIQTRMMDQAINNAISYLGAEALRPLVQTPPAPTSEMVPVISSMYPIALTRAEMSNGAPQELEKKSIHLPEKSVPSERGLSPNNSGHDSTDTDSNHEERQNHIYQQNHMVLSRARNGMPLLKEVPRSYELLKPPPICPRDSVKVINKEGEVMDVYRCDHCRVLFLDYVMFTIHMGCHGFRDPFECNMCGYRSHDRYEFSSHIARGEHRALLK
T1 sequence (Q96SW2 whole entry): as the sequence (Q96SW2 whole entry) above
T1 sequence (Q16531 whole entry partner): as the sequence (Q16531 whole entry partner) above
T4 sequence (Q96SW2 whole entry): as the sequence (Q96SW2 whole entry) above

IC50 [1]: < 0.5 µM
Structure (SMILES): Cc1nc(N2CCN(Cc3ccc4c(c3)CN(C3CCC(=O)NC3=O)C4=O)CC2)c2c3c(sc2n1)CCC3 (stereo not drawn) [GT-05157, 3-(5-((4-(2-methyl-6,7-dihydro-5H-cyclopenta[4,5]thieno[2,3-d]pyrimidin-4-yl)piperazin-1-yl)methyl)-1-oxoisoindolin-2-yl)piperidine-2,6-dione]
IKZF3 substrate protein remaining % (IKZF3; [2]): A (0% ≤ substrate protein remaining % ≤ 80%)
CK1a substrate protein remaining % (CK1α; [2]): A (0% ≤ substrate protein remaining % ≤ 80%)
IKZF 1 substrate protein remaining % (IKZF1; [2]): A (0% ≤ substrate protein remaining % ≤ 80%)
Weel substrate protein remaining % (WEE1; [2]): B (80%< substrate protein remaining %≤ 100%)
IKZF2 substrate protein remaining % (IKZF2; [2]): A (0% ≤ substrate protein remaining % ≤ 80%)
GSPT1 substrate protein remaining % (GSPT1; [2]): A (0% ≤ substrate protein remaining % ≤ 80%)

IC50 [1]: < 0.5 µM
Structure (SMILES): Cc1nc(C2CCN(Cc3ccc4c(c3)CN(C3CCC(=O)NC3=O)C4=O)CC2)c2c(-c3ccccc3)csc2n1 (stereo not drawn) [GT-05158, 3-(5-((4-(2-methyl-5-phenylthieno[2,3-d]pyrimidin-4-yl)piperidin-1-yl)methyl)-1-oxoisoindolin-2-yl)piperidine-2,6-dione]
IKZF3 substrate protein remaining % (IKZF3; [2]): A (0% ≤ substrate protein remaining % ≤ 80%)
CK1a substrate protein remaining % (CK1α; [2]): B (80%< substrate protein remaining %≤ 100%)
IKZF 1 substrate protein remaining % (IKZF1; [2]): B (80%< substrate protein remaining %≤ 100%)
Weel substrate protein remaining % (WEE1; [2]): B (80%< substrate protein remaining %≤ 100%)
IKZF2 substrate protein remaining % (IKZF2; [2]): A (0% ≤ substrate protein remaining % ≤ 80%)
GSPT1 substrate protein remaining % (GSPT1; [2]): A (0% ≤ substrate protein remaining % ≤ 80%)

IC50 [1]: < 0.5 µM
Structure (SMILES): O=C1CCC(N2Cc3cc(CN4CCC(c5ncnc6sc(-c7ccccc7)cc56)CC4)ccc3C2=O)C(=O)N1 (stereo not drawn) [GT-05159, 3-(1-oxo-5-((4-(6-phenylthieno[2,3-d]pyrimidin-4-yl)piperidin-1-yl)methyl)isoindolin-2-yl)piperidine-2,6-dione]
IKZF3 substrate protein remaining % (IKZF3; [2]): A (0% ≤ substrate protein remaining % ≤ 80%)
CK1a substrate protein remaining % (CK1α; [2]): B (80%< substrate protein remaining %≤ 100%)
IKZF 1 substrate protein remaining % (IKZF1; [2]): A (0% ≤ substrate protein remaining % ≤ 80%)
Weel substrate protein remaining % (WEE1; [2]): B (80%< substrate protein remaining %≤ 100%)
IKZF2 substrate protein remaining % (IKZF2; [2]): A (0% ≤ substrate protein remaining % ≤ 80%)
GSPT1 substrate protein remaining % (GSPT1; [2]): A (0% ≤ substrate protein remaining % ≤ 80%)

IC50 [1]: < 0.5 µM
Structure (SMILES): O=C1CCC(N2Cc3cc(CN4CCN(c5ncnc6sc7c(c56)CCCC7)CC4)ccc3C2=O)C(=O)N1 (stereo not drawn) [GT-05209, 3-(1-oxo-5-((4-(5,6,7,8-tetrahydrobenzo[4,5]thieno[2,3-d]pyrimidin-4-yl)piperazin-1-yl)methyl)isoindolin-2-yl)piperidine-2,6-dione]
IKZF3 substrate protein remaining % (IKZF3; [2]): A (0% ≤ substrate protein remaining % ≤ 80%)
CK1a substrate protein remaining % (CK1α; [2]): B (80%< substrate protein remaining %≤ 100%)
IKZF 1 substrate protein remaining % (IKZF1; [2]): A (0% ≤ substrate protein remaining % ≤ 80%)
Weel substrate protein remaining % (WEE1; [2]): A (0% ≤ substrate protein remaining % ≤ 80%)
IKZF2 substrate protein remaining % (IKZF2; [2]): A (0% ≤ substrate protein remaining % ≤ 80%)
GSPT1 substrate protein remaining % (GSPT1; [2]): B (80%< substrate protein remaining %≤ 100%)

IC50 [1]: 0.5 to 1 µM
Structure (SMILES): Cc1nc(C2CCN(Cc3ccc4c(c3)CN(C3CCC(=O)NC3=O)C4=O)CC2)c2c3c(sc2n1)CCC3 (stereo not drawn) [GT-05210, 3-(5-((4-(2-methyl-6,7-dihydro-5H-cyclopenta[4,5]thieno[2,3-d]pyrimidin-4-yl)piperidin-1-yl)methyl)-1-oxoisoindolin-2-yl)piperidine-2,6-dione]
IKZF3 substrate protein remaining % (IKZF3; [2]): A (0% ≤ substrate protein remaining % ≤ 80%)
CK1a substrate protein remaining % (CK1α; [2]): A (0% ≤ substrate protein remaining % ≤ 80%)
IKZF 1 substrate protein remaining % (IKZF1; [2]): A (0% ≤ substrate protein remaining % ≤ 80%)
Weel substrate protein remaining % (WEE1; [2]): A (0% ≤ substrate protein remaining % ≤ 80%)
IKZF2 substrate protein remaining % (IKZF2; [2]): A (0% ≤ substrate protein remaining % ≤ 80%)
GSPT1 substrate protein remaining % (GSPT1; [2]): B (80%< substrate protein remaining %≤ 100%)

IC50 [1]: < 0.5 µM
Structure (SMILES): O=C1CCC(N2Cc3cc(CN4CCC(c5ncnc6sc7c(c56)CCCC7)CC4)ccc3C2=O)C(=O)N1 (stereo not drawn) [GT-05265, 3-(1-oxo-5-((4-(5,6,7,8-tetrahydrobenzo[4,5]thieno[2,3-d]pyrimidin-4-yl)piperidin-1-yl)methyl)isoindolin-2-yl)piperidine-2,6-dione]
IKZF3 substrate protein remaining % (IKZF3; [2]): A (0% ≤ substrate protein remaining % ≤ 80%)
CK1a substrate protein remaining % (CK1α; [2]): A (0% ≤ substrate protein remaining % ≤ 80%)
IKZF 1 substrate protein remaining % (IKZF1; [2]): A (0% ≤ substrate protein remaining % ≤ 80%)
Weel substrate protein remaining % (WEE1; [2]): B (80%< substrate protein remaining %≤ 100%)
IKZF2 substrate protein remaining % (IKZF2; [2]): A (0% ≤ substrate protein remaining % ≤ 80%)
GSPT1 substrate protein remaining % (GSPT1; [2]): A (0% ≤ substrate protein remaining % ≤ 80%)

IC50 [1]: < 0.5 µM
Structure (SMILES): O=C1CCC(N2Cc3cc(CN4CCN(c5nsc6cc(F)ccc56)CC4)ccc3C2=O)C(=O)N1 (stereo not drawn) [GT-05332, 3-(5-((4-(6-fluorobenzo[d]isothiazol-3-yl)piperazin-1-yl)methyl)-1-oxoisoindolin-2-yl)piperidine-2,6-dione]
IKZF3 substrate protein remaining % (IKZF3; [2]): B (80%< substrate protein remaining %≤ 100%)
CK1a substrate protein remaining % (CK1α; [2]): B (80%< substrate protein remaining %≤ 100%)
IKZF 1 substrate protein remaining % (IKZF1; [2]): B (80%< substrate protein remaining %≤ 100%)
Weel substrate protein remaining % (WEE1; [2]): B (80%< substrate protein remaining %≤ 100%)
IKZF2 substrate protein remaining % (IKZF2; [2]): A (0% ≤ substrate protein remaining % ≤ 80%)
GSPT1 substrate protein remaining % (GSPT1; [2]): B (80%< substrate protein remaining %≤ 100%)

IC50 [1]: < 0.5 µM
Structure (SMILES): O=C1CCC(N2Cc3cc(CN4CCN(c5nc(N6CCCC6)nc6c5SCC6)CC4)ccc3C2=O)C(=O)N1 (stereo not drawn) [GT-05389, 3-(1-oxo-5-((4-(2-(pyrrolidin-1-yl)-6,7-dihydrothieno[3,2-d]pyrimidin-4-yl)piperazin-1-yl)methyl)isoindolin-2-yl)piperidine-2,6-dione]
IKZF3 substrate protein remaining % (IKZF3; [2]): B (80%< substrate protein remaining %≤ 100%)
CK1a substrate protein remaining % (CK1α; [2]): B (80%< substrate protein remaining %≤ 100%)
IKZF 1 substrate protein remaining % (IKZF1; [2]): A (0% ≤ substrate protein remaining % ≤ 80%)
Weel substrate protein remaining % (WEE1; [2]): B (80%< substrate protein remaining %≤ 100%)
IKZF2 substrate protein remaining % (IKZF2; [2]): A (0% ≤ substrate protein remaining % ≤ 80%)
GSPT1 substrate protein remaining % (GSPT1; [2]): B (80%< substrate protein remaining %≤ 100%)

IC50 [1]: < 0.5 µM
Structure (SMILES): O=C1CCC(N2Cc3cc(CN4CCN(c5nc(N6CCC6)nc6c5SCC6)CC4)ccc3C2=O)C(=O)N1 (stereo not drawn) [GT-05900, 3-(5-((4-(2-(azetidin-1-yl)-6,7-dihydrothieno[3,2-d]pyrimidin-4-yl)piperazin-1-yl)methyl)-1-oxoisoindolin-2-yl)piperidine-2,6-dione]
IKZF3 substrate protein remaining % (IKZF3; [3]): A (0% ≤ substrate protein remaining % ≤ 80%)
CK1a substrate protein remaining % (CK1α; [3]): B (80%< substrate protein remaining %≤ 100%)
IKZF 1 substrate protein remaining % (IKZF1; [3]): B (80%< substrate protein remaining %≤ 100%)
Weel substrate protein remaining % (WEE1; [3]): B (80%< substrate protein remaining %≤ 100%)
IKZF2 substrate protein remaining % (IKZF2; [3]): A (0% ≤ substrate protein remaining % ≤ 80%)
GSPT1 substrate protein remaining % (GSPT1; [3]): B (80%< substrate protein remaining %≤ 100%)

IC50 [1]: < 0.5 µM
Structure (SMILES): O=C1CCC(N2C(=O)c3ccc(CN4CCN(c5cccs5)CC4)cc3C2=O)C(=O)N1 (stereo not drawn) [GT-06212, 2-(2,6-dioxopiperidin-3-yl)-5-((4-(thiophen-2-yl)piperazin-1-yl)methyl)isoindoline-1,3-dione]
IKZF3 substrate protein remaining % (IKZF3; [3]): B (80%< substrate protein remaining %≤ 100%)
CK1a substrate protein remaining % (CK1α; [3]): B (80%< substrate protein remaining %≤ 100%)
IKZF 1 substrate protein remaining % (IKZF1; [3]): B (80%< substrate protein remaining %≤ 100%)
Weel substrate protein remaining % (WEE1; [3]): B (80%< substrate protein remaining %≤ 100%)
IKZF2 substrate protein remaining % (IKZF2; [3]): A (0% ≤ substrate protein remaining % ≤ 80%)
GSPT1 substrate protein remaining % (GSPT1; [3]): A (0% ≤ substrate protein remaining % ≤ 80%)

IC50 [1]: 1.5 to 1.9 µM
Structure (SMILES): Cc1ccc(N2CCN(Cc3ccc4c(c3)C(=O)N(C3CCC(=O)NC3=O)C4=O)CC2)s1 (stereo not drawn) [GT-06213, 2-(2,6-dioxopiperidin-3-yl)-5-((4-(5-methylthiophen-2-yl)piperazin-1-yl)methyl)isoindoline-1,3-dione]
IKZF3 substrate protein remaining % (IKZF3; [3]): B (80%< substrate protein remaining %≤ 100%)
CK1a substrate protein remaining % (CK1α; [3]): B (80%< substrate protein remaining %≤ 100%)
IKZF 1 substrate protein remaining % (IKZF1; [3]): B (80%< substrate protein remaining %≤ 100%)
Weel substrate protein remaining % (WEE1; [3]): B (80%< substrate protein remaining %≤ 100%)
IKZF2 substrate protein remaining % (IKZF2; [3]): A (0% ≤ substrate protein remaining % ≤ 80%)
GSPT1 substrate protein remaining % (GSPT1; [3]): A (0% ≤ substrate protein remaining % ≤ 80%)

IC50 [1]: 0.5 to 1 µM
Structure (SMILES): O=C1CCC(N2C(=O)c3ccc(CN4CCN(c5ccsc5)CC4)cc3C2=O)C(=O)N1 (stereo not drawn) [GT-06215, 2-(2,6-dioxopiperidin-3-yl)-5-((4-(thiophen-3-yl)piperazin-1-yl)methyl)isoindoline-1,3-dione]
IKZF3 substrate protein remaining % (IKZF3; [3]): A (0% ≤ substrate protein remaining % ≤ 80%)
CK1a substrate protein remaining % (CK1α; [3]): A (0% ≤ substrate protein remaining % ≤ 80%)
IKZF 1 substrate protein remaining % (IKZF1; [3]): B (80%< substrate protein remaining %≤ 100%)
Weel substrate protein remaining % (WEE1; [3]): A (0% ≤ substrate protein remaining % ≤ 80%)
IKZF2 substrate protein remaining % (IKZF2; [3]): B (80%< substrate protein remaining %≤ 100%)
GSPT1 substrate protein remaining % (GSPT1; [3]): B (80%< substrate protein remaining %≤ 100%)
